Results taken from patent US20230130766A1 (SALK INSTITUTE FOR BIOLOGICAL STUDIES, priority 2020, published 2023).

What was measured:
Format in all cases: in vivo, nude mice
[1] = system: NCI-H358 cells; test: H358 xenografts treated with ULK inhibitor alone; conditions: 30 mg/kg twice daily
Method: NCI-H358 cells (5M cells) were injected bilaterally into the flanks of twenty nude mice to create tumor xenografts in order to assess the efficacy of Compound 14 in treating non-small cell lung cancer tumors. After 32 days of letting tumor cells proliferate (at which point tumors had reach ˜200 mm^3 in volume), one cohort of ten mice was administered 30 mg/kg twice daily doses of Compound 14, and the remaining mice administered vehicle alone. Treatment and monitoring was continued until day 72 post inoculation of tumor cells.

[2] = system: MIA PaCa-2 cells; test: MIA PaCa-2 xenografts, ULK inhibitor alone versus gemcitabine; conditions: day 42, Compound 14 20 mg/kg twice daily, gemcitabine dose not given
Method: MIA PaCa-2 cells were injected bilaterally into the flanks of nude mice to create tumor xenografts in order to assess the efficacy of Compound 14 in treating pancreatic cancer tumors compared to gemcitabine, a current standard of care therapy for pancreatic cancer. After 3 days of letting tumor cells proliferate (at which point tumors were ˜100 mm^3 in volume), administration of gemcitabine or Compound 14 was initiated. One cohort received 20 mg/kg twice daily doses of Compound 14, one cohort received gemcitabine, and the remaining cohort was treated with vehicle. Treatment and monitoring were continued until day 42 post inoculation of tumor cells (30 days of treatment).

[3] = system: NCI-H460 cells; test: NCI-H460 xenografts treated with ULK inhibitor alone; conditions: 30 mg/kg twice daily
Method: NCI-H460 cells (2.5M cells) were injected bilaterally into the flanks of twenty-four nude mice to create tumor xenografts in order to assess the efficacy of Compound 14 in treating non-small cell lung cancer tumors. After 14 days of letting tumor cells proliferate (at which point tumors had reach ˜200 mm^3 in volume), one cohort of twelve mice was administered 30 mg/kg twice daily doses of Compound 14, and the remaining mice administered vehicle alone. Treatment and monitoring were continued until day 23 post inoculation of tumor cells (9 days of treatment).

CNC(=O)c1ccccc1Nc1nc(Nc2cc(OC)c(OC)c(OC)c2)ncc1Br [Compound 14]
% growth of tumor cells relative to the start of treatment [1]: clear reduction in average tumor size | average tumor volume ([1]; day 32 to day 72 post inoculation): no growth during the monitoring period, and even a decrease in tumor size | average tumor mass at the end of the study ([1]; day 35 post treatment): substantially smaller overall tumor burden compared to control | final tumor volume [2]: ~800 mm^3 | % growth of tumor relative to the start of treatment [3]: clear reduction in tumor growth | average tumor volume ([3]; 9 days of treatment): substantially reduced growth during the monitoring period compared to the control | tumor growth ([3]; after 3 days of treatment): tumor growth had virtually stopped | less tumor mass than vehicle treated mice ([3]; day 9 post treatment): ~50%
